Reference: patent EP0565593B1, “REDUCING PESTICIDAL INTERACTIONS IN CROPS” (priority 1990, dated 1992)
“And” between values parts separate entries of the source, which are not always exact repeats. Equal entries are not always repeated. Where two headings read alike, the source gives them in different places.

How the values were obtained:
[1] = tested on: cotton (COTT); experiment: Multi-crop greenhouse test, biocide, herbicide and safener applied to soil covers (Examples 65, 66; Tables 64, 65); format: in vivo; parameters: inhibition: dose or concentration left out as unconfirmed; conditions: for inhibition / inhibition at 18 g/ha / inhibition at 70 g/ha / inhibition at 280 g/ha: Gossypium hirsutum, soil; for inhibition at 18 g/ha: Herb. No. 1 0.018 Kg/Ha alone; for inhibition at 70 g/ha: Herb. No. 1 0.07 Kg/Ha alone; for inhibition at 280 g/ha: Herb. No. 1 0.28 Kg/Ha alone
Protocol: Tests according to this invention in various crops indicate widespread application of the invention. In Examples 62-66 below are described tests with a variety of herbicides contacted with COUNTER® 15G in the presence and absence of MON-7400 (Antidote No. 12); MON-13900 (No. 1); MON-4660 (No. 16) and flurazole (No. 16). Those tests were conducted according to Procedures IV or V described above and illustrated further in other foregoing examples. Plants used in all tests were, for crops (as abbreviated in parentheses); cotton (COTT); soybean (SOBE); CORN, grain sorghum (GRSO); wheat (WHEA) and RICE, and the weeds giant foxtail (GIFT) and velvetleaf (VELE). The data in the tables below represent averages of two replications.
In this test the crops and weeds were planted 1.3 cm deep in 13.7 cm X 27.7 cm pans containing Dupo silt loam soil. The test safeners were applied in acetone solution and COUNTER 15G as dry granules to soil cover layers and incorporated by shaking in a bag. Treated cover layers were placed on seeded pans which were transferred to greenhouse benches and subirrigated. Herbicide was applied POE six (6) days after PPI initiation and observations of plant injury made ten (10) days later; results are shown in Table 61. The herbicide used in this example was BEACON (No. 8).
In another test in the several crops and weeds used in this test series, the herbicidal component was MON-12000 (No. 1); the other components were the same. the procedure used in this test was the same as that described in Example 62, modified to use a light overhead irrigation (about 0.32 cm/day) during days 4-7 of the test.
In yet another test in this series, XRD-498 (Herbicide No. 21) was used as the herbicidal component in contact with COUNTER 15G in the presence of the above safeners. The various components of the system (biocide, herbicide and safener) were applied concurrently to soil covers of the seeded plants.

[2] = tested on: Giant foxtail (GIFT); experiment: Greenhouse test Procedure VII (same examples); format: in vivo
Text: (§1) This procedure describes interaction among herbicide, biocide and antidote when the biocide and the antidote is applied to a soil furrow containing crop seed before emergence of the crop and the herbicide is applied after emergence of the crop and weeds. The soil and planting depth was described in Procedure IV. The containers for comparison, the biocide and antidote applications to soil furrows were described in Procedure VI. In this procedure, the seed beds of the first, second, third and fourth containers are covered by soil layers not treated with herbicide. The containers were then placed on a bench in a greenhouse and subirrigated as required for the duration of the test. The herbicide, dispersed or dissolved in water containing 0.25% v/v nonionic surfactant (X-77) was applied by a track sprayer (187 L/ha) to the emerged plants of the second, third and fourth containers about five days after planting. All treatments were run in duplicate. Plant response was observed according to Procedure IV. Variations in this procedure will be noted in the examples.
In these tests (according to Procedure VII) the safeners in solution with acetone were applied in furrow to the soil, followed by COUNTER 15G granules at 227 g/305 m (8 oz./1000'). Applications were made in alternate rows in two separate 13.7 cm x 27.7 cm pans containing Dupo silt loam. Pans were seeded 1.3 cm deep, placed on benches in a greenhouse and subirrigated. BEACON was formulated in water with 0.25% v/v X-77 surfactant and applied by track sprayer at a rate of 187 L/Ha (20 gal/A). Weed species in this test were giant foxtail, shattercane and velvetleaf. The herbicide was applied five (5) days after PPI initiation and observation of test result (shown in Table 47) made eight (8) days later.
In Table 47 COUNTER 15G is abbreviated as "C" and the antidotes as "A" in the column headings which indicate the "C + A" ratios used in the tests. Control and COUNTER treatments are average of four (4) replications and COUNTER + Antidote treatments, average of 2 reps.

[3] = tested on: Velvetleaf (VELE); experiment: Greenhouse test Procedure VII (same examples); format: in vivo, Abutilon theophrasti
Text: as §1
In this example, tests were conducted according to Procedure VII for the POE application of the herbicides following in-furrow application of COUNTER® 15G insecticide (BIOCIDE No. 1) and the antidote on the pre-planted test seeds. In this test, the herbicides were Nos. 1 (MON-12000), 10 (ALLY®) and #4 (HARMONY®) and the Antidote Nos. 1, 7, 12 and 33.
These in-furrow treatments comprised a 50-50 mix of blended granules of COUNTER with and without 5G granular antidotes at 7.4 + 7.4 mg/cm or 1.1 + 0.37 mg active ingredient (a.i.)/cm. The in-furrow initiation of the test was followed five (5) days later with POE application of the herbicides; observations were made eight (8) days later. Table 38 […]

[4] = tested on: Velvetleaf (VELE); format: in vivo, Abutilon theophrasti
[5] = Antidote + Biocide No. 1 in furrow, Herbicide No. 1 0.14 Kg/Ha POE, 8 days after POE
[6] = Antidote + Biocide No. 1 in furrow, Herbicide No. 4 0.17 Kg/Ha POE, 8 days after POE
[7] = Antidote + Biocide No. 1 in furrow, Herbicide No. 5 0.07 Kg/Ha POE, 8 days after POE
[8] = Antidote + Biocide No. 1 in furrow, Herbicide No. 6 0.01 Kg/Ha POE
[9] = Antidote + Biocide No. 1 in furrow, Herbicide No. 7 0.56 Kg/Ha POE, 8 days after POE
[10] = Antidote + Biocide No. 1 in furrow, Herbicide No. 9 0.009 Kg/Ha POE
[11] = Antidote + Biocide No. 1 in furrow, Herbicide No. 10 0.002 Kg/Ha POE, 8 days after POE
[12] = Antidote + Biocide No. 1 in furrow, Herbicide No. 15 0.0044 Kg/Ha POE, 8 days after POE
[13] = Antidote + Biocide No. 1 in furrow, Herbicide No. 16 0.01 Kg/Ha POE
[14] = Antidote + Biocide No. 1 in furrow, Herbicide No. 18 0.0044 Kg/Ha POE
[15] = Antidote + Biocide No. 1 in furrow, Herbicide No. 19 0.28 Kg/Ha POE
[16] = Antidote + Biocide No. 1 in furrow, Herbicide No. 21 0.14 Kg/Ha POE
[17] = Antidote + Biocide No. 1 in furrow, Herbicide No. 23 0.0006 Kg/Ha POE
[18] = Herbicide No. 1 0.14 Kg/Ha POE + Biocide No. 1 in furrow, no antidote, 8 days after POE
[19] = Herbicide No. 1 0.14 Kg/Ha POE alone, 8 days after POE
[20] = Antidote 4.48 + Biocide No. 1 8.96 Kg/Ha PPI, Herb. No. 8 0.07, 5 DAP, before herbicide application
[21] = Antidote 4.48 + Biocide No. 1 8.96 Kg/Ha PPI, Herb. No. 8 0.07 POE, 13 DAP
[22] = Antidote 4.48 + Biocide No. 1 8.96 Kg/Ha PPI, Herbicide No. 7 0.28 POE, 13 days after planting
[23] = Herb. […], 5 DAP, before herbicide application
[24] = Table 14: Herbicide No. 7 (ACCENT) 0.84 Kg/Ha POE + Biocide No. 2 8.96 Kg/Ha PPI + antidote 4.48 Kg/Ha PPI, 13 days after planting, 8 days after herbicide
[25] = […], 13 days after planting, 8 days after herbicide
[26] = […], observed 10 days after herbicide application

CC1(C)OC(c2ccco2)CN1C(=O)C(Cl)Cl (centres unmarked) [compound 1]
% Inhibition COTT ([1]; Table 64, Herb. No. 1 0.018 Kg/Ha + Biocide No. 1 8.96 Kg/Ha + Antidote 4.48 Kg/Ha): 20% | % Inhibition COTT ([1]; Table 64, Herb. No. 1 0.07 Kg/Ha + Biocide No. 1 8.96 Kg/Ha + Antidote 4.48 Kg/Ha): 35% | % Inhibition COTT ([1]; Table 64, Herb. No. 1 0.28 Kg/Ha + Biocide No. 1 8.96 Kg/Ha + Antidote 4.48 Kg/Ha): 35% | % Inhibition COTT ([1]; Table 65, Herb. No. 1 0.018 Kg/Ha + Biocide No. 1 8.96 Kg/Ha + Antidote 4.48 Kg/Ha): 10% | % Inhibition COTT ([1]; Table 65, Herb. No. 1 0.07 Kg/Ha + Biocide No. 1 8.96 Kg/Ha + Antidote 4.48 Kg/Ha): 20% | % Inhibition COTT ([1]; Table 65, Herb. No. 1 0.28 Kg/Ha + Biocide No. 1 8.96 Kg/Ha + Antidote 4.48 Kg/Ha): 45% | % Inhibition GIFT [2, 5]: 0% | % Inhibition GIFT [2, 6]: 0% | % Inhibition GIFT [2, 7]: 0% | % Inhibition GIFT [2, 8]: 60% | % Inhibition GIFT [2, 9]: 85% | % Inhibition GIFT [2, 10]: 30% | % Inhibition GIFT [2, 11]: 0% | % Inhibition GIFT [2, 12]: 20% | % Inhibition GIFT [2, 13]: 35% | % Inhibition GIFT [2, 14]: 65% | % Inhibition GIFT [2, 15]: 35% | % Inhibition GIFT [2, 16]: 35% | % Inhibition GIFT [2, 17]: 20% | % Inhibition GIFT [2, 18]: 0% | % Inhibition GIFT [2, 19]: 0% | % Inhibition VELE [3, 5]: 95% | % Inhibition VELE [3, 6]: 90% | % Inhibition VELE [3, 7]: 95% | % Inhibition VELE [3, 8]: 60% | % Inhibition VELE [3, 9]: 75% | % Inhibition VELE [3, 10]: 90% | % Inhibition VELE [3, 11]: 90% | % Inhibition VELE [3, 12]: 75% | % Inhibition VELE [3, 13]: 35% | % Inhibition VELE [3, 14]: 65% | % Inhibition VELE [3, 15]: 65% | % Inhibition VELE [3, 16]: 85% | % Inhibition VELE [3, 17]: 60% | % Inhibition VELE [3, 18]: 90% | % Inhibition VELE [3, 19]: 85% | % Inhibition 5 DAP VELE [4, 20]: 0% | % Inhibition 13 DAP VELE [4, 21]: 90% | % Inhibition VELE [4, 22]: 70% | % Inhibition 5 DAP VELE [4, 23]: 0% | % Inhibition VELE [4, 24]: 65% | % Inhibition VELE [4, 25]: 70% | % Inhibition VELE ([4]; […], observed 9 days later (Table 29)): 90% | % Inhibition VELE ([4]; […], observed 9 days later (Table 30)): 75% | % Inhibition VELE [4, 26]: 80% | % Inhibition 5 DAP VELE ([4]; in vivo): 10% | % Inhibition 13 DAP VELE ([4]; in vivo): 90% | % Inhibition VELE ([4]; in vivo): 75% and 65% and 80% and 70% and 85%

COC(=O)c1c(Cl)nn(C)c1S(=O)(=O)NC(=O)Nc1nc(OC)cc(OC)n1 [Herbicide No. 1, N-[(4,6-dimethoxypyrimidin-2-yl)aminocarbonyl]-3-chloro-4-methoxycarbonyl-5-sulfonamide, reference compound]
inhibition ([1]; Table 64, Herb. No. 1 0.018 Kg/Ha + Biocide No. 1 8.96 Kg/Ha): 15% | inhibition at 18 g/ha ([1]; Table 64): 10% | inhibition ([1]; Table 64, Herb. No. 1 0.07 Kg/Ha + Biocide No. 1 8.96 Kg/Ha): 0% | inhibition at 70 g/ha ([1]; Table 64): 20% | inhibition ([1]; Table 64, Herb. No. 1 0.28 Kg/Ha + Biocide No. 1 8.96 Kg/Ha): 55% | inhibition at 280 g/ha ([1]; Table 64): 60% | inhibition ([1]; Table 65, Herb. No. 1 0.018 Kg/Ha + Biocide No. 1 8.96 Kg/Ha): 0% | inhibition at 18 g/ha ([1]; Table 65): 0% | inhibition ([1]; Table 65, Herb. No. 1 0.07 Kg/Ha + Biocide No. 1 8.96 Kg/Ha): 20% | inhibition at 70 g/ha ([1]; Table 65): 20% | inhibition ([1]; Table 65, Herb. No. 1 0.28 Kg/Ha + Biocide No. 1 8.96 Kg/Ha): 75% | inhibition at 280 g/ha ([1]; Table 65): 40%

N#CCOc1ccc(Cl)c2cccnc12 [compound 33]
% Inhibition GIFT [2, 5]: 0% | % Inhibition GIFT [2, 6]: 0% | % Inhibition GIFT [2, 7]: 0% | % Inhibition GIFT [2, 8]: 65% | % Inhibition GIFT [2, 9]: 80% | % Inhibition GIFT [2, 10]: 25% | % Inhibition GIFT [2, 11]: 0% | % Inhibition GIFT [2, 12]: 0% | % Inhibition GIFT [2, 13]: 30% | % Inhibition GIFT [2, 14]: 65% | % Inhibition GIFT [2, 15]: 35% | % Inhibition GIFT [2, 16]: 30% | % Inhibition GIFT [2, 17]: 25% | % Inhibition VELE [3, 5]: 90% | % Inhibition VELE [3, 6]: 90% | % Inhibition VELE [3, 7]: 90% | % Inhibition VELE [3, 8]: 65% | % Inhibition VELE [3, 9]: 65% | % Inhibition VELE [3, 10]: 85% | % Inhibition VELE [3, 11]: 90% | % Inhibition VELE [3, 12]: 80% | % Inhibition VELE [3, 13]: 40% | % Inhibition VELE [3, 14]: 65% | % Inhibition VELE [3, 15]: 60% | % Inhibition VELE [3, 16]: 90% | % Inhibition VELE [3, 17]: 70% | % Inhibition 5 DAP VELE [4, 20]: 50% | % Inhibition 13 DAP VELE [4, 21]: 95% | % Inhibition VELE [4, 22]: 70% | % Inhibition 5 DAP VELE [4, 23]: 30% | % Inhibition VELE [4, 24]: 75% | % Inhibition VELE [4, 25]: 70% | % Inhibition VELE [4, 26]: 85% | % Inhibition 5 DAP VELE ([4]; in vivo): 60% | % Inhibition 13 DAP VELE ([4]; in vivo): 90%
